One assay concerns pSTAT5/GM-CSF. The experiment in a line: pSTAT5/GM-CSF cellular assay (JAK2 selectivity). In kind it is cell-based. As to conditions: for Selectivity fold (TYK2/JAK2): pSTAT5/GM-CSF IC50 over pSTAT4/IL-12 IC50.
Assay [1] deals with JAK2, TYK2/p-STAT4 (Tyr693) activated by IL-12 in NK-92 cell line. Briefly: IL-12-JAK2, TYK2/p-STAT4 (Tyr693) inhibition IC50 cellular assay. In kind it is cell-based. As to conditions: for IC50: read-out: pSTAT4/IL-12 IC50; for Selectivity fold (TYK2/JAK2): pSTAT5/GM-CSF IC50 vs pSTAT4/IL-12 IC50. The source says:
Assay C: IL-12-JAK2, TYK2/p-STAT4 (Tyr693) Inhibition IC50 Cellular Assay
To evaluate the inhibition effect of compounds disclosed herein on JAK2, TYK2/p-STAT4 (Tyr693) activated by IL-12 in NK-92 cell line, NK-92 cells were collected and washed 3 times by DPBS and resuspended in MEM-α (GIBCO, Cat #12561056) with 10% FBS (Gibco, Cat #10099, Lot #1891605), without IL-2 (R&D systems, Cat #202-IL), starved overnight. Cells were collected and resuspended in 1640 medium (phenol red free, Gibco, Cat #11835-030) with 0.1% BSA, and 12.5 μl/5×10^4/well cell suspension were seeded to the 96-well plate (Corning, Cat #3799). Then cells were treated with compounds diluted in 0.2% DMSO 1640 medium, at 37° C., 1 h. Dilution is done according to the following protocol: (1) make 500× compounds solution in DMSO from 5 mM by 4-fold dilution, total 8 doses were included; (3) make 2× compounds solution in assay medium by transferring 0.5 μl serial 500× stock solution into 125 μl assay medium; (4) 15 μl of 2× serial solution is added to cells and incubate at 37° C. for 1 h, the final compound conc. is 10000, 2500, 625, 156.25, 39, 9.8, 2.4 and 0.61 nM, respectively. After 1 h, cells were treated with 2.5 μl medium containing IL-12 at 37° C. (R&D systems, Cat #219-IL-005, final conc. 40 ng/ml), 30 min. Following cells were lysed with 7.5 μl lysis buffer at RT, shaking on shaker for 1 h. 10 μL of cell lysate were transferred to a PE 384-well Proxiplate detection plate, and 5 μL of pre-mixed Alphascreen beads were added to each well. Covered the plate with a plate sealer, span 1000 rpm for 1 min, mix, Incubated overnight at room temperature. Read on BMG PheraStar with Alphascreen protocol. IC 50 values were calculated by fitting dependent data to the four-parameter logistic model using dotmatics software. The assay was performed by using AlphaLISA SureFire Ultra p-STAT4 (Tyr693) Assay Kit—High Volume (PE, Cat #ALSU-PST4-A-HV).

For assay [2], the target named is T1, TYK2-JH2 (aa 575-869, in-house) protein (Homo sapiens, UniProt P29597).
T1 construct: TYK2-JH2 (aa 575-869, in-house) protein; made in house
T1 sequence (P29597 575-869): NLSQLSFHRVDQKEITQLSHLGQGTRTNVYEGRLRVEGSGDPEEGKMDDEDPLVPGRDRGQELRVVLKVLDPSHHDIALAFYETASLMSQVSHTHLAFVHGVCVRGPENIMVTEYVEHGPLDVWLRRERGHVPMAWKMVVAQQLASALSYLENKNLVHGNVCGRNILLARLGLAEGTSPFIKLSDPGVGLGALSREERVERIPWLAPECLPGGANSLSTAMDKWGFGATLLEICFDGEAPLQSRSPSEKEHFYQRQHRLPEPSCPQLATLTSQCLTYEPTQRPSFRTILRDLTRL
Briefly: TYK2-JH2 biochemical assay (HTRF probe displacement). In kind it is binding. The conditions noted are these: for IC50: Biochemical assay, read-out: TYK2-JH2 IC50. The method, then:
Assay A: TYK2-JH2 Biochemical Assay
Compounds disclosed herein were tested for blocking of TYK2-JH2 (aa 575-869, in-house) protein with its probe in an assay based on Homogeneous Time Resolved Fluorescence. Compound dilution is done according to the following protocol: (1) Prepare 500× compounds solution in DMSO from 500 uM by 5-fold dilution, total 10 doses were included; (2) Prepare 10× compounds solution in an assay buffer containing 20 mM HEPES, pH 7.5, 10 mM MgCl2, 0.005% BSA, 2 mM DTT, 0.015% Brij-35 by transferring 1 μl serial 500× stock solution into 49 μl assay buffer. […] of 0.2 nM recombinant TYK2-JH2 protein was pre-incubated with 1 μl of 10× serial dilution of compounds at room temperature for 0.5 hour. […] The HTRF signals (ex337 nm, em620 nm/665 nm) were read on BMG PHERAstar FS instrument. The inhibition percentage of TYK2 interaction with its probe in presence of increasing concentrations of compounds was calculated based on the ratio of fluorescence at 615 nm to that at 665 nm. The IC50 for each compound was derived from fitting the data to the four-parameter logistic equation by Dotmatics.

One may read the Kd as the concentration at which binding is half-saturated.

SMILES strings stand for the structures. Where two headings read alike, the source gives them in different places.

`CC(=O)Nc1cc(Nc2cc(C3COCCO3)cc(S(C)(=O)=O)n2)c(-c2ccc3c(n2)OCC(C)(C)O3)cn1` (racemic) [Example Q50, (R/S)—N-(4-((4-(1,4-dioxan-2-yl)-6-(methylsulfonyl)pyridin-2-yl)amino)-5-(2,2-dimethyl-2,3-dihydro-[1,4]dioxino[2,3-b]pyridin-6-yl)pyridin-2-yl)acetamide]: the IC50 in the assay on pSTAT5/GM-CSF came out at 2020 nM; in assay [1] (NK92, Cellular assay), 0.626 nM; in assay [2] it was 0.019 nM. Besides, in the assay on pSTAT5/GM-CSF, the “Selectivity fold (TYK2/JAK2)” value is 3231 fold.

`CC(=O)Nc1cc(Nc2cc(C3COCCO3)cc(S(C)(=O)=O)n2)c(-c2ccc3c(n2)OCC(C)(C)O3)cn1` (racemic) [Example Q51, (S/R)—N-(4-((4-(1,4-dioxan-2-yl)-6-(methylsulfonyl)pyridin-2-yl)amino)-5-(2,2-dimethyl-2,3-dihydro-[1,4]dioxino[2,3-b]pyridin-6-yl)pyridin-2-yl)acetamide]: the IC50 in the assay on pSTAT5/GM-CSF was more than 10000 nM; in assay [1] (Cellular assay), 0.979 nM; in assay [2], 0.034 nM. Moreover, the “Selectivity fold (TYK2/JAK2)” value in the assay on pSTAT5/GM-CSF is on record as more than 10214 fold.

In the case of `CC(=O)Nc1cc(Nc2cccc(S(C)(=O)=O)n2)c(-c2c[nH]cn2)cn1` [Example A3, N-(5-(1H-imidazol-4-yl)-4-((6-(methylsulfonyl)pyridin-2-yl)amino)pyridin-2-yl)acetamide], the IC50 with pSTAT5/GM-CSF is more than 10000 nM; in assay [1] (NK92, Cellular assay) it was 2.53 nM; in assay [2], 0.035 nM. Besides, the “Selectivity fold (TYK2/JAK2)” value in assay [1] (Cellular assay) is reported as more than 3952 fold.

With `CC(=O)Nc1cc(Nc2cc(C)cc(S(C)(=O)=O)n2)c(-c2ccco2)cn1` [Example A9, N-(5-(furan-2-yl)-4-((4-methyl-6-(methylsulfonyl)pyridin-2-yl)amino)pyridin-2-yl)acetamide], the IC50 is more than 10000 nM in the assay on pSTAT5/GM-CSF; 1.33 nM in assay [1] (NK92, Cellular assay); 0.041 nM in assay [2]. Besides, the “Selectivity fold (TYK2/JAK2)” value in assay [1] (Cellular assay) is reported as more than 7518 fold.

As for `CC(=O)Nc1cc(Nc2cccc(S(C)(=O)=O)c2)c(-c2ncn(C)n2)cn1` [Example A10, N-(5-(1-methyl-1H-1,2,4-triazol-3-yl)-4-((3-(methylsulfonyl)phenyl)amino)pyridin-2-yl)acetamide], the IC50 worked out at 3000 nM in assay [1] (NK92, Cellular assay) and 2.4 nM in assay [2].

Turning to `COc1ccc(S(C)(=O)=O)nc1Nc1cc(NC(C)=O)ncc1-c1cnn(C)c1` [Example A11, N-(4-((3-methoxy-6-(methylsulfonyl)pyridin-2-yl)amino)-5-(1-methyl-1H-pyrazol-4-yl)pyridin-2-yl)acetamide], the IC50 with pSTAT5/GM-CSF was more than 10000 nM; in assay [1] (NK92, Cellular assay) it was 41.7 nM; in assay [2], 0.063 nM. Also, the “Selectivity fold (TYK2/JAK2)” value in assay [1] (Cellular assay) was more than 239 fold.

As to `CC(=O)Nc1cc(Nc2cc(OC(C)C)cc(S(C)(=O)=O)n2)c(-n2cccn2)cn1` [Example A12, N-(4-((4-isopropoxy-6-(methylsulfonyl)pyridin-2-yl)amino)-5-(1H-pyrazol-1-yl)pyridin-2-yl)acetamide], the IC50 in the assay on pSTAT5/GM-CSF is more than 10000 nM; in assay [1] (NK92, Cellular assay), 16.8 nM; in assay [2] it was 0.037 nM. For the same compound, the “Selectivity fold (TYK2/JAK2)” value in assay [1] (Cellular assay) is more than 595 fold.

`CC(=O)Nc1cc(Nc2cc(OC(C)C)cc(S(C)(=O)=O)n2)c(-c2ccn(CCO)n2)cn1` [Example A14, N-(5-(1-(2-hydroxyethyl)-1H-pyrazol-3-yl)-4-((4-isopropoxy-6-(methylsulfonyl)pyridin-2-yl)amino)pyridin-2-yl)acetamide]: the IC50 in the assay with pSTAT5/GM-CSF is more than 10000 nM; in assay [1] (NK92, Cellular assay), 0.969 nM; in assay [2] it was 0.022 nM. In assay [1] (Cellular assay), the “Selectivity fold (TYK2/JAK2)” value was more than 10319 fold.

As to `COCCn1ccc(-c2cnc(NC(C)=O)cc2Nc2cc(C)cc(S(C)(=O)=O)n2)n1` [Example A15, N-(5-(1-(2-methoxyethyl)-1H-pyrazol-3-yl)-4-((4-methyl-6-(methylsulfonyl)pyridin-2-yl)amino)pyridin-2-yl)acetamide], the IC50 was 3460 nM in the assay on pSTAT5/GM-CSF; 0.687 nM in assay [1] (NK92, Cellular assay); 0.04 nM in assay [2]. The “Selectivity fold (TYK2/JAK2)” value in assay [1] (Cellular assay) was determined as 5039 fold.

`CC(=O)Nc1cc(Nc2cc(OC(C)C)cc(S(C)(=O)=O)n2)c(-c2cccc(C#N)n2)cn1` [Example A16, N-(6-cyano-4′-((4-isopropoxy-6-(methylsulfonyl)pyridin-2-yl)amino)-[2,3′-bipyridin]-6′-yl)acetamide]: the IC50 with pSTAT5/GM-CSF is more than 10000 nM; in assay [1] (NK92, Cellular assay) it was 0.667 nM; in assay [2] it was 0.021 nM. Moreover, the “Selectivity fold (TYK2/JAK2)” value in assay [1] (Cellular assay) is on record as more than 14992 fold.

Regarding `CC(=O)Nc1cc(Nc2cc(C3CCOC3)cc(S(C)(=O)=O)n2)c(-c2ccc3c(n2)OCC(C)(C)O3)cn1` (centres unmarked) [Example Q86, N-(5-(2,2-dimethyl-2,3-dihydro-[1,4]dioxino[2,3-b]pyridin-6-yl)-4-((6-(methylsulfonyl)-4-(tetrahydrofuran-3-yl)pyridin-2-yl)amino)pyridin-2-yl)acetamde], the IC50 in assay [2] was determined as 0.031 nM.

On to `CC(=O)Nc1cc(Nc2cc(-c3c(C)noc3C)cc(S(C)(=O)=O)n2)c(-c2ccc3c(n2)OCC(C)(C)O3)cn1` [Example Q99, N-(5-(2,2-dimethyl-2,3-dihydro-[1,4]dioxino[2,3-b]pyridin-6-yl)-4-((4-(3,5-dimethylisoxazol-4-yl)-6-(methylsulfonyl)pyridin-2-yl)amino)pyridin-2-yl)acetamide], for which the IC50 in assay [2] came to 0.033 nM.

Turning to `CC(=O)Nc1cc(Nc2cc(N3CCCC3)cc(S(C)(=O)=O)n2)c(-c2ccc3c(n2)OCC(C)(C)O3)cn1` [Example Q104, N-(5-(2,2-dimethyl-2,3-dihydro-[1,4]dioxino[2,3-b]pyridin-6-yl)-4-((6-(methylsulfonyl)-4-(pyrrolidin-1-yl)pyridin-2-yl)amino)pyridin-2-yl)acetamide], the IC50 in assay [2] is 0.029 nM.

Regarding `CC(=O)Nc1cc(Nc2cc(N3CC4CC4C3)cc(S(C)(=O)=O)n2)c(-c2ccc3c(n2)OCC(C)(C)O3)cn1` (centres unmarked) [Example Q106, N-(4-((4-(3-azabicyclo[3.1.0]hexan-3-yl)-6-(methylsulfonyl)pyridin-2-yl)amino)-5-(2,2-dimethyl-2,3-dihydro-[1,4]dioxino[2,3-b]pyridin-6-yl)pyridin-2-yl)acetamide], the IC50 in assay [2] amounted to 0.015 nM.

Take `CC(=O)Nc1cc(Nc2cc(C3(C#N)CC3)cc(S(C)(=O)=O)n2)c(-c2ccc3c(n2)OCC(C)(C)O3)cn1` [Example Q120, N-(4-((4-(1-cyanocyclopropyl)-6-(methylsulfonyl)pyridin-2-yl)amino)-5-(2,2-dimethyl-2,3-dihydro-[1,4]dioxino[2,3-b]pyridin-6-yl)pyridin-2-yl)acetamide]: the IC50 in assay [2] amounted to 0.032 nM.

Regarding `Cc1cc(C)cc(Nc2cc(NCCNC(=O)CCOCCOCCOCCOCCOCCOCCNC(=O)CCCC[C@@H]3SC[C@@H]4NC(=O)N[C@@H]43)c3ncc(C(N)=O)n3n2)c1` [Probe 1, 6-((3,5-dimethylphenyl)amino)-8-((4,26-dioxo-30-((3aS,4S,6aR)-2-oxohexahydro-1H-thieno[3,4-d]imidazol-4-yl)-7,10,13,16,19,22-hexaoxa-3,25-diazatriacontyl)amino)imidazo[1,2-b]pyridazine-3-carboxamide, reference compound], the affinity in assay [2] (in-house probe of the TYK2-JH2 assay), expressed as Kd, was 10 nM.
